Where two headings read alike, the source gives them in different places.
Assays:
Type in all cases: cell-based
[1] = target: recombinant perforin (UniProt P10820)
Procedure: Inhibition of Perforin-Mediated Lysis of Jurkat Cells
The ability of the compounds to inhibit the lysis of nucleated (Jurkat T lymphoma) cells in the presence of 0.1% BSA, as measured by release of ^51Cr was measured. Jurkat target cells were labelled by incubation in medium with 100 μCi ^51Cr for one hour. The cells were then washed three times to remove unincorporated isotope and re-suspended at 1×10^5 cells per mL in RPMI buffer supplemented with 0.1% BSA. […] The supernatant was collected and assessed for its radioactive content on a gamma counter (Wallac Wizard 1470 automatic gamma counter). Each data point was performed in triplicate and an IC50 was calculated from the range of concentrations described to above.

[2] = system: KHYG-1 NK cell-mediated lysis of K562 cells; experiment: Inhibition of KHYG-1 NK cell-mediated lysis of K562 cells (51Cr release); settings: K562 target cells, Effector:Target 2:1, 4 hours 37° C.
Procedure: Inhibition of KHYG-1 NK Cell-Mediated lysis of K562 Cells
KHYG-1 cells were washed and resuspended in RPMI+0.1% BSA at 4×10^5 cells/ml and 50 μl of KHYG-1 cells were dispensed to each well of a 96-well V-bottom, plate. Test compounds were added to KHYG-1 cells at various concentrations up to 20 μM and incubated at RT for 20 minutes. 1×10^6 K562 target cells were labelled with 75 μCi ^51Cr in 200 μl RPMI for 90 mins at 37° C., cells were washed as described above and resuspended in 5 ml RPMI+0.1% BSA. 50 μl of ^51Cr labelled K562 leukemia target cells were added to each well of the KHYG-1 plate (Effector:Target 2:1) and incubated at 37° C. for 4 hours. ^51Cr release was assayed using a Skatron Harvesting Press and radioactivity estimated on a Wallac Wizard 1470 Automatic Gamma counter (Turku, Finland). The percentage of specific cytotoxicity was calculated by the formula: […]
and expressed as the mean of triplicate assays +/−standard error of the mean.

[3] = system: KHYG-1 NK cells; experiment: Toxicity to KHYG-1 NK cells (trypan blue viability); settings: viable cells as percentage of total (% viability), 18 to 24 hours
Procedure: Toxicity to KHYG-1 NK Cells
KHYG-1 cells were washed and resuspended in RPMI+0.1% BSA at 4×10^5 cells/ml and 50 μl of KHYG-1 cells were dispensed to each well of a 96-well V-bottom plate. Test compounds were added to KHYG-1 cells at a concentration of 20 μM and incubated at RT for 20 minutes. 100 μL of RPMI 0.1% BSA was added and the cells were incubated for 4 hours at 37° C. then washed ×3 in RPMI+0.1% BSA. Cells were then resuspended in 200 μl of complete medium and incubated for 18 to 24 hours at 37° C. Trypan blue was added to each well and viable (clear) cells counted as a percentage of total (clear+blue) cell number (% viability).

[4] = read-out: Jurkat IC50; recombinant perforin pre-incubated 30 min with compound; 51Cr-labelled Jurkat cells, 0.1% BSA, 37° C. 4 hours

Sequence of recombinant perforin (P10820 whole entry): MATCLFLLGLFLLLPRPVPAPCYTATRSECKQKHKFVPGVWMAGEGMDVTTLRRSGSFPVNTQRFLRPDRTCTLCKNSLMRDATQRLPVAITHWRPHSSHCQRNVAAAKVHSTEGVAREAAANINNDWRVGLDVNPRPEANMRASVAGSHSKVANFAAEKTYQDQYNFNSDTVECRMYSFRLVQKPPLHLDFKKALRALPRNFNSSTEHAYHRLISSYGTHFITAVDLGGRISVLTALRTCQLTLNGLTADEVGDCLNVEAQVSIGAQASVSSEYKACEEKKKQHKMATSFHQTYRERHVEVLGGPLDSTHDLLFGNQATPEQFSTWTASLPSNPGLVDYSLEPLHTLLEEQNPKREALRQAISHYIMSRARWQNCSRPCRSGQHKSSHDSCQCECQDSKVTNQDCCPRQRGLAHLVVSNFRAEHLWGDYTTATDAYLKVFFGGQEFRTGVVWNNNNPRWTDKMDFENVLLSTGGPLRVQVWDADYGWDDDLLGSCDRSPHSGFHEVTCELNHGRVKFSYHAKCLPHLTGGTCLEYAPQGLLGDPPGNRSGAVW

Row | SMILES | IC50 [1, 4] | inhibition at 20 µM [2] | percent viable KHYG-1 cells (trypan blue) at 20 μM [3] | IC50 ([1]; recombinant perforin pre-incubated 30 min with compound; 51Cr-labelled Jurkat cells, 0.1% BSA, 37° C. 4 hours; read-out: Jurkat IC50)
1 | O=C1NC(=S)N/C1=C/c1ccc(-c2ccc3c(c2)CN(CC(O)CO)C3=O)s1 (stereo not drawn) [Cmpd 78, (E,Z)-2-(2,3-Dihydroxypropyl)-5-(5-((5-oxo-2-thioxoimidazolidin-4-ylidene)methyl)thiophen-2-yl)isoindolin-1-one] | 1.26 µM | 19% | – | –
2 | O=C1NC(=S)N/C1=C/c1ccc(-c2ccc3c(c2)CN(CCCO)C3=O)s1 [Cmpd 71, (E,Z)-2-(3-Hydroxypropyl)-5-(5-((5-oxo-2-thioxoimidazolidin-4-ylidene)methyl)thiophen-2-yl)isoindolin-1-one] | 0.53 µM | 62% | 88% | –
3 | CC(=O)OCc1ccc(-c2ccc(/C=C3/NC(=S)NC3=O)s2)cc1 [Cmpd 18, (E,Z)-4-(5-((5-Oxo-2-thioxoimidazolidin-4-ylidene)methyl)thiophen-2-yl)benzyl acetate] | 3.04 µM | 98% | 100% | –
4 | O=C1NC(=S)N/C1=C\c1ccc(-c2ccc3c(c2)C(=O)NCC3)s1 [Cmpd 81, (E,Z)-7-(5-((5-Oxo-2-thioxoimidazolidin-4-ylidene)methyl)thiophen-2-yl)-3,4-dihydroisoquinolin-1(2H)-one] | 0.67 µM | 62% | 88% | –
5 | O=C1NC(=S)N/C1=C/c1ccc(-c2ccc(Br)cc2)s1 [Cmpd 32, (E,Z)-5-((5-(4-Bromophenyl)thiophen-2-yl)methylene)-2-thioxoimidazolidin-4-one] | 1.69 µM | 66% | 83% | –
6 | COC(=O)c1ccc(-c2ccc(/C=C3/NC(=S)NC3=O)s2)cc1C [Cmpd 21, (E,Z)-Methyl 2-methyl-4-(5-((5-oxo-2-thioxoimidazolidin-4-ylidene)methyl)thiophen-2-yl)benzoate] | 3.03 µM | 92% | – | –
7 | O=C1NC(=S)N/C1=C/c1ccc(-c2cccc(Cl)c2)s1 [Cmpd 23, (E,Z)-5-((5-(3-Chlorophenyl)thiophen-2-yl)methylene)-2-thioxoimidazolidin-4-one] | 7.19 µM | 92% | 55% | –
8 | O=C1NC(=S)N/C1=C/c1ccc(-c2ccc(C(=O)NCC(O)CO)cc2)s1 (stereo not drawn) [Cmpd 40, (E,Z)-N-(2,3-Dihydroxypropyl)-4-(5-((5-oxo-2-thioxoimidazolidin-4-ylidene)methyl)thiophen-2-yl)benzamide] | 2.44 µM | 47% | 82% | –
9 | O=C1NC(=S)N/C1=C/c1ccc(-c2ccncc2)s1 [Cmpd 25, (E,Z)-5-((5-(Pyridin-4-yl)thiophen-2-yl)methylene)-2-thioxoimidazolidin-4-one] | 10.1 µM | – | – | –
10 | O=C1NC(=S)N/C1=C/c1ccc(-c2ccc3c(c2)COC3=O)s1 [Cmpd 2, (E,Z)-5-((5-(1-Oxo-1,3-dihydroisobenzofuran-5-yl)thiophen-2-yl)methylene)-2-thioxoimidazolidin-4-one] | 0.76 µM | 52% | 83% | –
11 | CC(=O)c1ccc(-c2ccc(/C=C3/NC(=S)NC3=O)s2)cc1 [Cmpd 20, (E,Z)-5-((5-(4-Acetylphenyl)thiophen-2-yl)methylene)-2-thioxoimidazolidin-4-one] | 1.67 µM | 90% | 100% | –
12 | O=C1NC(=S)N/C1=C/c1ccc(-c2ccc3c(c2)CN(CCO)C3=O)s1 [Cmpd 70, (E,Z)-2-(2-Hydroxyethyl)-5-(5-((5-oxo-2-thioxoimidazolidin-4-ylidene)methyl)thiophen-2-yl)isoindolin-1-one] | 0.78 µM | 38% | 77% | –
13 | O=C1NC(=S)NC1=Cc1ccc(-c2ccc3c(c2)CNC3=O)cc1 [Cmpd 48, (E,Z)-5-(4-((5-Oxo-2-thioxoimidazolidin-4-ylidene)methyl)phenyl)isoindolin-1-one] | 5.55 µM | 16% | – | –
14 | O=C1NC(=S)N/C1=C/c1ccc(-c2ccc(Cl)cc2)s1 [Cmpd 24, (E,Z)-5-((5-(4-Chlorophenyl)thiophen-2-yl)methylene)-2-thioxoimidazolidin-4-one] | 5.22 µM | 59% | 89% | –
15 | O=C1NC(=S)N/C1=C/c1ccc(-c2ccc(C(=O)NCCO)cc2)s1 [Cmpd 42, (E,Z)-N-(2-Hydroxyethyl)-4-(5-((5-oxo-2-thioxoimidazolidin-4-ylidene)methyl)thiophen-2-yl)benzamide] | 3.64 µM | 42% | – | –
16 | CS(=O)(=O)Nc1ccc(-c2ccc(/C=C3/NC(=S)NC3=O)s2)cc1 [Cmpd 33, (E,Z)-N-(4-(5-((5-Oxo-2-thioxoimidazolidin-4-ylidene)methyl)thiophen-2-yl)phenyl)methanesulfonamide] | 7.7 µM | 32% | – | –
17 | CN1Cc2cc(-c3ccc(/C=C4/NC(=S)NC4=O)s3)ccc2C1=O [Cmpd 61, (E,Z)-2-Methyl-5-(5-((5-oxo-2-thioxoimidazolidin-4-ylidene)methyl)thiophen-2-yl)isoindolin-1-one] | – | 83% | 76% | –
18 | CS(=O)(=O)c1ccc(-c2ccc(/C=C3/NC(=S)NC3=O)s2)cc1 [Cmpd 28, (E,Z)-5-((5-(4-(Methylsulfonyl)phenyl)thiophen-2-yl)methylene)-2-thioxoimidazolidin-4-one] | 13.8 µM | – | – | –
19 | O=C1NC(=S)N/C1=C/c1ccc(-c2ccc(F)cc2)s1 [Cmpd 29, (E,Z)-5-((5-(4-Fluorophenyl)thiophen-2-yl)methylene)-2-thioxoimidazolidin-4-one] | 6.69 µM | – | – | –
20 | O=C1NC(=S)N/C1=C/c1ccc(-c2cccc(F)c2)s1 [Cmpd 31, (E,Z)-5-((5-(3-Fluorophenyl)thiophen-2-yl)methylene)-2-thioxoimidazolidin-4-one] | 10.8 µM | – | – | –
21 | O=C1NC(=S)N/C1=C/c1ccc(-c2ccc(F)c(F)c2)s1 [Cmpd 30, (E,Z)-5-((5-(3,4-Difluorophenyl)thiophen-2-yl)methylene)-2-thioxoimidazolidin-4-one] | 4.59 µM | – | – | –
22 | CN1CCc2cc(-c3ccc(/C=C4\NC(=S)NC4=O)s3)ccc2C1=O [Cmpd 84, (E,Z)-2-Methyl-6-(5-((5-oxo-2-thioxoimidazolidin-4-ylidene)methyl)thiophen-2-yl)-3,4-dihydroisoquinolin-1(2H)-one] | 2.33 µM | 72% | – | –
23 | O=C1NC(=S)N/C1=C/c1ccc(-c2ccc3c(c2)COC3=O)cn1 [Cmpd 7] | – | – | – | 2 µM
24 | CN1CCc2ccc(-c3ccc(/C=C4\NC(=S)NC4=O)s3)cc2C1=O [Cmpd 83, (E,Z)-2-Methyl-7-(5-((5-oxo-2-thioxoimidazolidin-4-ylidene)methyl)thiophen-2-yl)-3,4-dihydroisoquinolin-1(2H)-one] | 4.76 µM | 91% | – | –
25 | O=C1NC(=S)N/C1=C/c1ccc(-c2ccc(C(=O)NCCCO)cc2)s1 [Cmpd 44, (E,Z)-N-(3-Hydroxypropyl)-4-(5-((5-oxo-2-thioxoimidazolidin-4-ylidene)methyl)thiophen-2-yl)benzamide] | 4.35 µM | 52% | – | –
